Measured values reported in US12029217B2, “Safened compositions comprising pyridine carboxylate herbicides and isoxadifen” (Corteva Agriscience LLC, priority 2018, dated 2024).

Assays:
Type in all cases: in vivo
[1] = tested on: Amaranthus palmeri (glyphosate-resistant Palmer amaranth); test: Greenhouse postemergence visual injury, glyphosate-resistant Palmer amaranth (AMAPA-Gly); settings: Example 7
Source text: (§1) Seeds of the desired test plant species were planted in a 90:10% v/v (volume/volume) mixture of PRO-MIX® BX (Premier Tech Horticulture, Quakertown, PA, USA) and PROFILE® GREENS GRADE™ (Profile Products LLC, Buffalo Grove, IL, USA) planting mixture, which typically has a pH of 5.2 to 6.2 and an organic matter content of at least 50 percent, in plastic pots with a surface area of 103.2 square centimeters (cm^2). When required to ensure good germination and healthy plants, a fungicide treatment and/or other chemical or physical treatment was applied. The plants were grown for 7-36 days (d) in a greenhouse with an approximate 14-hour (h) photo-period which was maintained at about 23° C. during the day and 22° C. during the night. Nutrients and water were added on a regular basis and supplemental lighting was provided with overhead metal halide 1000-Watt lamps as necessary. The plants were employed for testing when they reached the second or third true leaf stage.
(§2) Emulsifiable concentrates of each of each pyridine carboxylate herbicide (Compound A or Compound B) were prepared at 100 grams acid equivalent per liter (g ae/L). An aliquot of each emulsifiable concentrate was placed in a 25 mL glass vial and diluted with an aqueous mixture of 1.25% (v/v) ACTIROB® B esterified rapeseed oil (Bayer Crop Science, Research Triangle Park, NC, USA) or MSO® Concentrate with LECI-TECH® methylated soybean oil (Loveland Products, Loveland, CO, USA) to obtain concentrated stock solutions at the highest application rate for each herbicide, based upon a 12 milliliter (mL) application volume at a rate of 187 liters per hectare (L/ha). The concentrated stock solutions were further diluted with an aqueous mixture of 1.25% v/v ACTIROB® B or MSO® Concentrate with LECI-TECH® to obtain stock solutions at reduced application rates for each herbicide. Spray solutions of the herbicide combinations (Compound A or Compound B plus safener) were prepared by adding weighed amounts or aliquots of the safener to the stock solutions of Compound A or Compound B to form 12-mL spray solutions in two-way combinations.
(§3) The spray solutions were applied to the plant material with an overhead Mandel track sprayer equipped with 8002E nozzles calibrated to deliver 187 L/ha over an application area of 0.503 square meters (m^2) at a spray height of 18 inches (43 centimeters (cm)) above the average plant canopy. […]
(§4) The treated plants and control plants were placed in a greenhouse as described above and watered by sub-irrigation to prevent wash-off of the test compounds. After 20-22 d, the condition of the test plants as compared with that of the control plants was determined visually and scored on a scale of 0 to 100 percent where 0 corresponds to no injury and 100 corresponds to complete kill.

[2] = tested on: Polygonum convolvulus (wild buckwheat); test: Greenhouse postemergence visual injury, wild buckwheat (POLCO); settings: Compound A 20 g/ha, Example 6
Source text: as §1, §2, §3, §4

[3] = tested on: Lolium multiflorum (Italian ryegrass); test: Greenhouse postemergence visual injury, Italian ryegrass (LOLMU)
Source text: as §1, §2
(§5) The spray solutions were applied to the plant material with an overhead Mandel track sprayer equipped with 8002E nozzles calibrated to deliver 187 L/ha over an application area of 0.503 square meters (m^2) at a spray height of 18 inches (43 centimeters (cm)) above the average plant canopy. Control plants were sprayed in the same manner with the solvent blank. All herbicide (component a) application rates are given as “g ae/ha” and all safener (component b) application rates are given as “g ai/ha.”
as §4

[4] = tested on: Abutilon theophrasti (velvetleaf); test: Greenhouse postemergence visual injury, velvetleaf (ABUTH); settings: Compound A 20 g/ha, Example 6
Source text: as §1, §2, §3, §4

[5] = tested on: Triticum aestivum (winter wheat); test: Greenhouse postemergence visual injury, winter wheat (TRZAW)
Source text: as §1, §2, §5, §4

[6] = tested on: Avena fatua (wild oat); test: Greenhouse postemergence visual injury, wild oat (AVEFA); settings: Compound A 20 g/ha, Example 6
Source text: as §1, §2, §3, §4

[7] = tested on: Cyperus esculentus (nutsedge); test: Greenhouse postemergence visual injury, nutsedge (CYPES)
Source text: as §1, §2, §5, §4

[8] = tested on: Oryza sativa (common rice); test: Greenhouse postemergence visual injury, rice (ORYSA); settings: Compound A 20 g/ha, Example 6
Source text: as §1, §2, §3, §4

[9] = tested on: Amaranthus tamariscinus (common water hemp); test: Greenhouse postemergence visual injury, common water hemp (AMATA); settings: Example 7
Source text: as §1, §2, §3, §4

[10] = tested on: Kochia scoparia (herbicide-resistant kochia); test: Greenhouse postemergence visual injury, herbicide-resistant kochia (KCHSC-R); settings: Compound A 20 g/ha, Example 6
Source text: as §1, §2, §3, §4

[11] = tested on: Sorghum vulgare (sorghum); test: Greenhouse postemergence visual injury, sorghum (SORVU); settings: Compound A 40 g/ha, Example 5
Source text: as §1, §2, §5, §4

[12] = tested on: Amaranthus retroflexus (pigweed); test: Greenhouse postemergence visual injury, pigweed (AMARE)
Source text: as §1, §2, §5, §4

[13] = tested on: Kochia scoparia (kochia); test: Greenhouse postemergence visual injury, kochia (KCHSC); settings: Compound A 20 g/ha, Example 6
Source text: as §1, §2, §3, §4

[14] = tested on: Sorghum halepense (Johnson grass); test: Greenhouse postemergence visual injury, Johnson grass (SORHA)
Source text: as §1, §2, §5, §4

[15] = tested on: Eleusine indica (goosegrass); test: Greenhouse postemergence visual injury, goosegrass (ELEIN); settings: Example 7
Source text: as §1, §2, §3, §4

[16] = tested on: Triticum aestivum (spring wheat); test: Greenhouse postemergence visual injury, spring wheat (TRZAS)
Source text: as §1, §2, §5, §4

[17] = tested on: Digitaria sanguinalis (large crabgrass); test: Greenhouse postemergence visual injury, large crabgrass (DIGSA)
Source text: as §1, §2, §5, §4

[18] = tested on: Cirsium arvense (Canada thistle); test: Greenhouse postemergence visual injury, Canada thistle (CIRAR); settings: Compound A 20 g/ha, Example 6
Source text: as §1, §2, §3, §4

[19] = tested on: Ambrosia artemisiifolia (common ragweed); test: Greenhouse postemergence visual injury, common ragweed (AMBEL); settings: Example 7
Source text: as §1, §2, §3, §4

N#CCOC(=O)c1nc(-c2ccc3cc[nH]c3c2F)c(F)c(N)c1Cl [Compound A, cyanomethyl 4-amino-3-chloro-5-fluoro-6-(7-fluoro-1H-indol-6-yl)pyridine-2-carboxylate]
% visual injury, Ob ([1]; Compound A 10 g/ha): 100% | % visual injury, Ob ([1]; Compound A 20 g/ha): 100% | % visual injury, Ob [2]: 100% | % visual injury, Ob ([3]; Compound A 10 g/ha, Example 7): 18% | % visual injury, Ob ([3]; Compound A 20 g/ha, Example 6): 5% | % visual injury, Ob ([3]; Compound A 20 g/ha, Example 7): 60% | % visual injury, Ob [4]: 95% | % visual injury, Ob ([5]; Compound A 20 g/ha, Example 6): 25% | % visual injury, Ob ([5]; Compound A 40 g/ha, Example 2): 25% | % visual injury, Ob [6]: 0% | % visual injury, Ob ([7]; Compound A 20 g/ha, Example 6): 30% | % visual injury, Ob ([7]; Compound A 40 g/ha, Example 4): 73% | % visual injury, Ob ([7]; Compound A 40 g/ha, Example 5): 73% | % visual injury, Ob [8]: 10% | % visual injury, Ob ([9]; Compound A 10 g/ha): 98% | % visual injury, Ob ([9]; Compound A 20 g/ha): 100% | % visual injury, Ob [10]: 90% | % visual injury, Ob [11]: 50% | % visual injury, Ob ([12]; Compound A 20 g/ha, Example 6): 93% | % visual injury, Ob ([12]; Compound A 40 g/ha, Example 4): 100% | % visual injury, Ob ([12]; Compound A 40 g/ha, Example 5): 100% | % visual injury, Ob [13]: 97% | % visual injury, Ob ([14]; Compound A 10 g/ha, Example 7): 10% | % visual injury, Ob ([14]; Compound A 20 g/ha, Example 6): 0% | % visual injury, Ob ([14]; Compound A 20 g/ha, Example 7): 60% | % visual injury, Ob ([15]; Compound A 10 g/ha): 73% | % visual injury, Ob ([15]; Compound A 20 g/ha): 93% | % visual injury, Ob ([16]; Compound A 20 g/ha, Example 1): 25% | % visual injury, Ob ([16]; Compound A 40 g/ha, Example 2): 23% | % visual injury, Ob ([16]; Compound A 40 g/ha, Example 4): 30% | % visual injury, Ob ([17]; Compound A 10 g/ha, Example 7): 28% | % visual injury, Ob ([17]; Compound A 20 g/ha, Example 6): 30% | % visual injury, Ob ([17]; Compound A 20 g/ha, Example 7): 40% | % visual injury, Ob [18]: 95% | % visual injury, Ob ([19]; Compound A 10 g/ha): 100% | % visual injury, Ob ([19]; Compound A 20 g/ha): 100%
